Laboratory results from patent publication US6709688B1, “Pigment” (Norsk Hydro ASA, priority 1999, dated 2004).
Where two headings read alike, the source gives them in different places.

Legend:
[1] = system: crude enzyme mixture from salmon intestine; assay: Hydrolysis with crude enzyme mixture from salmon intestine (Example 4); format: in vitro ADME; details: after 48 hours hydrolysis; for Diol (%): diol = free astaxanthin
Protocol: (§1) Tris buffer (0.25 M) solution was prepared by dissolving Tris (4.54 g; 37.5 mmol) in 150 ml of distilled water. The pH of the buffer solution was adjusted to 8.0 by adding 2 M hydrochloric acid. All the hydrolysis was done at room temperature so no special effort was necessary.
(§2) The astaxanthin diester was weighed accurately (˜40 mg, […]) along with 2.5 g of chremophor EL emulsifier (from BASF) into 100 ml Erlenmeyer flask. The solution was stirred vigorously for 20 minutes (until homogeneous) and then 20 ml of the Tris buffer was added and stirred for additional 10 minutes. The solution was suction filtered and the red filtrate was poured into 25 ml volumetric flask and diluted to the mark with buffer. Concentration of all the solution was determined spectrophotometically (492 nm) to be about 1 mg/ml, except for diacetate which was obtained in a lower concentration. All the solutions were stored in refrigerator wrapped in aluminium paper.
(§3) Fresh salmon and rainbow trout, that had been fed in the last 12 hours, were obtained from local fish farms. At the laboratory the fresh fish was cut open and the crude enzyme mixture extracted as follows: From the digestion line there were a lot of narrow tubes surrounded by fat tissue. Each of them was cut off and extracted by hand into a cooled container. The viscous solution (−50 ml) was diluted to 100 ml with 0.25 M Tris buffer and stirred for 30 minutes in an ice bath. Next step was centrifugation at 11.000 rpm for 20 minutes at 4° C. (RC5C from Du Pont). The water layer was extracted by pipette to another centrifuge glasses and the centrifugation repeated at 18.000 rpm for 30 minutes at 4° C. The water layer was transferred to Erlenmeyer flask and quickly frozen by liquid nitrogen. Before starting the reaction the mixture was thawed and purified by ultracentrifuge at 27.000 rpm for 45 minutes at 4° C. (157.000 g at top). The lipase preparation was obtained as a clear yellow solution.
(§4) Into a 10 ml round bottom flask was added 2 ml of stock solution and 3 ml of crude enzyme mixture from fish intestine. The flask was filled with nitrogen before closing, wrapped in aluminium paper and stirred for 48 hours. When finished, all the water was removed under reduced pressure (0.01 Torr) and redissolved in CH2Cl2. The solution was filtered through cotton wool plug and stored under nitrogen in a closed container. Analytical TLC was used to monitor the progress of the reaction with 5% acetone in CH2Cl2 as eluent (Diol(Rf=0.0-0.1), Monoest. (Rf=0.3-0.5), Diest. (Rf=0.8-0.9)). To determine the degree of hydrolysis all the samples were injected into analytical HPLC. [Eluent: 30% acetone in n-hexane. Column: Nucleosil 50-5 (2×30 cm) column. Flow rate: 0.15 ml/min. Detector: 470 nm (Diol Rf=0.4-0.5, Monoest. Rf=0.7, Diest. Rf=0.9-1.0)].
A similar experiment as in Example 2 was performed with enzymes from salmon intestinal fluid.
The diesters that were hydrolysed were prepared by esterification of astaxanthin with the following carboxylic acids:
Acetic acid, C16:0 (palmitic acid), fatty acids from a fish oil rich in omega-3 fatty acids (approx. 18% EPA and 12% DHA, called K30 in the tables below), a concentrate of omega-3 fatty acids (approx. 30% EPA and 20% DHA, called K55 in the tables below), the same concentrate of EPA and DHA as used in example 2 (approx. 50% EPA and 35% DHA, called ACD in the tables below), purified EPA (more than 95% EPA, called EPA in the tables) and purified DHA (more than 90% DHA, called DHA in the tables).

[2] = system: crude enzyme mixture from rainbow trout intestine; assay: Hydrolysis with crude enzyme mixture from rainbow trout intestine (Example 5); format: in vitro ADME, rainbow trout (Oncorhynchus mykiss); details: after 48 hours hydrolysis; for Diol (%): diol = free astaxanthin
Protocol: as §1, §2, §3, §4
A similar example as Example 2b was performed. However, for this Example crude enzyme preparation from rainbow trout (Oncorhynchus mykiss) was used. […] For the fish oil 37% was unreacted, while for ACD only 14% remained unreacted. As for salmon, we observe that EPA reacts faster than DHA (17 and 21% unreacted), however for rainbow trout we observe that an omega-3 concentrate like the ACD diester gives higher degree of hydrolysis than the diester of purified EPA.

[3] = system: commercial lipase, Candida rugosa (Lipase AY, 30); assay: Hydrolysis of astaxanthin diesters by commercial lipase
Protocol: We synthesised several other diesters in order to study whether these hydrolysed faster than the dipalmitate.
Diesters of astaxanthin were prepared with the following carboxylic acids: elaidic acid (trans-C18:1), palmitic acid (C16:0), decanoic acid (C10:0) and a concentrate of omega-3 fatty acids comprising approximately 50% eicosapentaenoic acid (EPA) (all cis C20:5 n3) and approximately 35% docosahexaenoic acid (DHA) (all cis C22:6 n3). The different diesters were firstly hydrolysed by a commercial lipase, Candida rugosa (Lipase AY, 30).

[4] = system: enzymes from salmon intestinal fluid; assay: Hydrolysis of astaxanthin diesters with enzymes from salmon intestinal fluid (Example 2); format: in vitro ADME, Atlantic salmon; details: after 45 hours at room temperature
Protocol: To verify the hydrolysis data for these astaxanthin diesters obtained by using the commercial lipase, another similar experiment was performed by using enzyme isolated from the intestine of Atlantic salmon.
A similar experiment as Example 1 was performed with enzymes from salmon intestinal fluid. The intestinal fluid from salmon was collected as described from cod (Lie, Ø. et al., Comp. Biochem. Physiol., 80B (3), (1985), pp. 447-450). The following results were obtained after 45 hours at room temperature: […]

[5] = cited from earlier work

| Diesters (%) [1] [%] | Monoesters (%) [1] [%] | Diol (%) [1] [%] | Diesters (%) [2] [%] | Monoesters (%) [2] [%] | Diol (%) [2] [%] | Free astaxanthin (%) [3] [%] | Free astaxanthin (%) [4] [%] | Diol (%) ([1]; listed as diester of astaxanthin with palmitic acid (16:0)) | Free astaxanthin (%) ([3]; after 42 hours at room temperature, commercial lipase Candida rugosa) | Free astaxanthin (%) ([4]; listed as didecanoate) | SMILES | pigmentation compared with the diol ([5]; literature) | absorption compared with free astaxanthin ([5]; rainbow trout, sea trout and Atlantic salmon) | Free astaxanthin (%) ([4]; listed as C10:0) |
| --- | --- | --- | --- | --- | --- | --- | --- | --- | --- | --- | --- | --- | --- | --- |
| 27 | 67 | 6 | 17 | 58 | 25 | – | – | – | – | – | CC/C=C\C/C=C\C/C=C\C/C=C\C/C=C\CCCC(=O)O[C@H]1CC(C)(C)C(/C=C/C(C)=C/C=C/C(C)=C/C=C/C=C(C)/C=C/C=C(C)/C=C/C2=C(C)C(=O)[C@@H](OC(=O)CCC/C=C\C/C=C\C/C=C\C/C=C\C/C=C\CC)CC2(C)C)=C(C)C1=O [EPA] | – | – | – |
| 81 | 19 | 0 | 71 | 18 | 11 | 40 | 1 | no free astaxanthin | – | – | CCCCCCCCCCCCCCCC(=O)O[C@H]1CC(C)(C)C(/C=C/C(C)=C/C=C/C(C)=C/C=C/C=C(C)/C=C/C=C(C)/C=C/C2=C(C)C(=O)[C@@H](OC(=O)CCCCCCCCCCCCCCC)CC2(C)C)=C(C)C1=O [16:0, astaxanthin dipalmitate, reference compound] | less pigmentation than the diol | absorbed less easy than free astaxanthin | – |
| 13 | 80 | 7 | 3 | 83 | 14 | – | – | – | – | – | CC(=O)O [Acetate] | – | – | – |
| 44 | 53 | 3 | 21 | 55 | 24 | – | – | – | – | – | CC/C=C\C/C=C\C/C=C\C/C=C\C/C=C\C/C=C\CCC(=O)O[C@H]1CC(C)(C)C(/C=C/C(C)=C/C=C/C(C)=C/C=C/C=C(C)/C=C/C=C(C)/C=C/C2=C(C)C(=O)[C@@H](OC(=O)CC/C=C\C/C=C\C/C=C\C/C=C\C/C=C\C/C=C\CC)CC2(C)C)=C(C)C1=O [DHA] | – | – | – |
| – | – | – | – | – | – | – | 1 | – | 73 | – | CCCCCCCCC=CCCCCCCCC(=O)OC1CC(C)(C)C(C=CC(C)=CC=CC(C)=CC=CC=C(C)C=CC=C(C)C=CC2=C(C)C(=O)C(OC(=O)CCCCCCCC=CCCCCCCCC)CC2(C)C)=C(C)C1=O (stereo not shown) [18:1] | – | – | – |
| – | – | – | – | – | – | – | 6 | – | – | 6 | CCCCCCCCCC(=O)O[C@H]1CC(C)(C)C(/C=C/C(C)=C/C=C/C(C)=C/C=C/C=C(C)/C=C/C=C(C)/C=C/C2=C(C)C(=O)[C@@H](OC(=O)CCCCCCCCC)CC2(C)C)=C(C)C1=O [10:0] | – | – | hydrolysed much faster than the dipalmitate |
